Converted amounts (≈) assume the structure as drawn.

For 1 molecule, IC90 results are on record in patent US6391919B1, “Bis-amino acid sulfonamides containing substituted benzyl amines HIV protease inhibitors” (Bristol-Myers Squibb Pharma Company, priority 2000, dated 2002).

In this test the test system is HIV-1 (RF). In words: HIV RNA assay: microplate based compound evaluation in HIV-1 infected MT-2 cells. The class given is cell-based. The following applies: Human immunodeficiency virus 1, MT2, 72 h; HIV-1 (RF) infected MT-2 cells, 3 days of culture; virus dilutions selected to standardize the inoculum to this value; read-out: IC90 value (concentration of compound required to reduce the HIV RNA level by 90%). The protocol: Plasmid pDAB 72 containing both gag and pol sequences of BH 10 (bp 113-1816) cloned into PTZ 19R was prepared according to Erickson-Viitanen et al. AIDS Research and Human Retroviruses 1989, 5, 577. The plasmid was linearized with Bam HI prior to the generation of in vitro RNA transcripts using the Riboprobe Gemini system 11 kit (Promega) with T7 RNA polymerase. Synthesized RNA was purified by treatment with RNase free DNAse (Promega), phenol-chloroform extraction, and ethanol precipitation. RNA transcripts were dissolved in water, and stored at −70° C. The concentration of RNA was determined from the A260.
Biotinylated capture probes were purified by HPLC after synthesis on an Applied Biosystems (Foster City, Calif.) DNA synthesizer by addition of biotin to the 5′ terminal end of the oligonucleotide, using the biotin-phosphoramidite reagent of Cocuzza, Tet. Lett. 1989, 30, 6287. […]
MT-2 and MTA cells were maintained in RPM 1640 supplemented with 5% fetal calf serum (FCS) for MT-2 cells or 10% FCS for MTA cells, 2 mM L-glutamine and 50 μg/mL gentamycin, all from Gibco. […] Infectious titers of HIV-1 (RF) stocks were 1-3×10^7 PFU (plaque forming units)/mL as measured by plaque assay on MT-2 cells (see below). […]

In the case of `Nc1ccn([C@H]2CC[C@@H](CO)O2)c(=O)n1` [ddC, dideoxycytidine], the IC90 is 0.2 µg/mL (≈ 0.947 µM).
